# In patent US20030235873A1, “Process for detecting enzyme activity in an immunoassay” (priority 2000, published 2003):
# *1 amine or outer side, *2 acyl side, *3 side chain or, on linkers, in order; H or OH if unused. Where a SMILES comes first, the peptide text is derived from it. Bridges are numbered along the chain shown (N, C = ends). Where no end group is shown, it is not given here. [ ]: non-standard residue; d: D form. Adda = CO[C@@H](Cc1ccccc1)[C@@H](C)/C=C(C)/C=C/[C@H](N[*:1])[C@H](C)C(=O)[*:2]; dAsp(3S-Me) = C[C@H](C(=O)[*:3])[C@@H](N[*:1])C(=O)[*:2]; d(γGlu) = O=C(O)[C@@H](CCC(=O)[*:2])N[*:1]; pY = N[C@@H](Cc1ccc(OP(=O)(O)O)cc1)C(=O)O; pT = C[C@@H](OP(=O)(O)O)[C@H](N)C(=O)O; NMeDha = C=C(NC)C(=O)O
# Assays:
# [1] = tested on: polyclonal anti active JNK antibody #9251 (New England Biolabs NEB #9251); assay: Fluorescence polarization binding of TAMRA-labelled JNK active-site peptides to anti-active JNK antibody; conditions: peptide at 5 nM
# Description: This polyclonal antibody detects all three isoforms of the SAPK1/JNK proteins only when they are activated by dual phosphorylation at threonine183/tyrosinel85. Binding of poly-clonal anti active JNK antibody #9251 (concentration: 0.02 mg/ml, equiv. 130 nM) to TAMRA-labelled P1*° peptide (at 5 nM) was measured at different antibody concentrations by fluorescence polarization. As a control, no binding of the antibody to the monophosphorylated TAMRA-P1° peptide (at 5 nM) is detected.
# The results of this experiment are illustrated in FIG. 4. […] The polarization values dramatically increase when using the double-phosphorylated TAMRA-P1*° peptide in contrast to mono-phosphorylated labelled TAMRA-P1° peptide (sequences see below).
# PP2A phosphatase = molecular target: T1, PP2A phosphatase (Homo sapiens, UniProt P67775); assay: Direct phosphatase assay: inhibition of PP2A-dependent dephosphorylation of TAMRA-P1°* peptide (fluorescence polarization read-out); type: biochemical
# T1 construct: purchased Upstate Biotech 14-111 (lot no. 20574)
# T1 sequence (P30153 2-589): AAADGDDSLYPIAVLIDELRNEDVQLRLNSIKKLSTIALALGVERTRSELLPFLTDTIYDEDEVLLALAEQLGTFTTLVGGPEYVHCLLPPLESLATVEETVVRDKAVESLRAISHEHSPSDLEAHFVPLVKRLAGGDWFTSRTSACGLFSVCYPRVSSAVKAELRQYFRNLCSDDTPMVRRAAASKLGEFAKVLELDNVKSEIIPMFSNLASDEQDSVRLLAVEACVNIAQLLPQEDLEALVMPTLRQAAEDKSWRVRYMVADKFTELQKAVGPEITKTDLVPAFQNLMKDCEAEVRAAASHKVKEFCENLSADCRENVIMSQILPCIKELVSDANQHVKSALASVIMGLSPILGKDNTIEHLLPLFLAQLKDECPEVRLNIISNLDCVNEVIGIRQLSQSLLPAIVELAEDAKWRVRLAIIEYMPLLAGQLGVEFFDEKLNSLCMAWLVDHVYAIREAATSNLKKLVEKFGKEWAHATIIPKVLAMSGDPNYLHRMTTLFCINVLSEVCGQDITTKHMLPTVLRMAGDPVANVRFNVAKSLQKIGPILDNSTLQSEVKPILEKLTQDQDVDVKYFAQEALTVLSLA
# T1 sequence (P67775 whole entry): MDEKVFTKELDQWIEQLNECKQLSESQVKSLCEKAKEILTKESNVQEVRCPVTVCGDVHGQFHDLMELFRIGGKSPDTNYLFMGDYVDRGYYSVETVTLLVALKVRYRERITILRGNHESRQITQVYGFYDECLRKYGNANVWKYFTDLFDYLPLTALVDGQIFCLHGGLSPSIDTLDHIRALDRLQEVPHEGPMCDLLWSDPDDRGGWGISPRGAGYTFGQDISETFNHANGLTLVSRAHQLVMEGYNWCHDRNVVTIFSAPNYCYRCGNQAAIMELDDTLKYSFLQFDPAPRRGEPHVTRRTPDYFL
# [2] = tested on: antibody NEB #9251 (polyclonal anti-active JNK antibody); assay: Fluorescence correlation spectroscopy competition of the NEB #9251 antibody-P1°*-TAMRA complex with non-fluorescent peptides; type: binding; conditions: antibody 1:20 diluted, TAMRA-labelled peptide P1*° 5 nM
# [3] = tested on: ac(K9)-p(S10)-specific antibody from New England Biolabs (#9711); assay: Binding of TAMRA-labelled histone H3 peptides to ac(K9)-p(S10)-specific antibody; conditions: FIG. 15 and 16
# Description: (§1) The histone deacetylase assay uses fluorescently-labelled peptides (TAMRA dye as a label) derived from histone H3 sequence. In the assay two different polyclonal antibodies are used which bind specifically to acetylated lysine redidues (ac(K) at positions ac(K9) or […]). Acetylation of a single lysine results in a relative small change of the molecular structure of the aminoacid side chain. The resulting change in the binding affinity to acetyl-specific antibodies is in general difficult to detect in a homogeneous binding assay. According to the invention, therefore an additional modification (phosphorylation of serine at position (S10)) was included within the H3-peptide sequence to enhance the affinity of the peptides to the applied antibodies. From the results of three independing binding experiments (FIGS. 15-17) it is evident that dual-modified peptide conjugates confer a higher affinity for the applied antibodies when compared to mono-modified peptide conjugates. This characteristic is of great value to measure the different acetylation states of lysine residues using acetyl-specific antibodies. In principle, the described binding assay can be applied both for the detection of acetyltransferase or deacetylase activity, in particular histone acetyltransferase/deacetylase.
# [4] = tested on: p(S10)-ac(K14)-specific antibody from Upstate Biotech (#07-081); assay: Binding of TAMRA-labelled histone H3 peptides to p(S10)-ac(K14)-specific antibody; conditions: FIG. 17
# Description: as §1
compound,measurement,setting,value
"5-TAMRA-AEEA-Lys-Phe-Met-Met-Thr-Pro-pTyr-Val-Val-Thr-Arg-NH2 (chain 1 KFMMTP; chain 2 YVVTR; not fully specified; 5-TAMRA-AEEA, phospho residue, C-terminal amide; printed: Lys-Phe-Met-Met-Thr-Pro-; printed: Tyr-Val-Val-Thr-Arg-) [TAMRA-P1°]",Binding of the antibody to the peptide,[1]; control,no binding
"5-TAMRA-AEEA-Lys-Phe-Met-Met-pThr-Pro-pTyr-Val-Val-Thr-Arg-NH2 (chain 1 KFMM; chain 2 YVVTR; not fully specified; 5-TAMRA-AEEA, pThr-Pro, phospho, C-terminal amide; printed: Lys-Phe-Met-Met-; printed: Tyr-Val-Val-Thr-Arg-) [P1*°-TAMRA]",Kd,"[1]; different antibody concentrations, read-out: Affinity of polyclonal anti-active-JNK antibody for peptide (KD)",2.6 nM
C=C1C(=O)N[C@H](C)C(=O)N[C@@H](CC(C)C)C(=O)N[C@@H](C(=O)O)[C@H](C)C(=O)N[C@@H](CCCNC(=N)N)C(=O)N[C@@H](/C=C/C(C)=C/[C@H](C)[C@H](Cc2ccccc2)OC)[C@H](C)C(=O)N[C@@H](C(=O)O)CCC(=O)N1C [microcystin-LR] (R[Adda][d(γGlu)][NMeDha][dA]L[dAsp(3S-Me)]-OH; lactam N-7),Inhibition of PP2A,PP2A phosphatase,full inhibition
C=C1[C@@H](O)[C@@H]2O[C@]3(CC[C@H](/C=C/[C@@H](C)[C@@H]4CC(C)=C[C@@]5(O[C@H](C[C@@](C)(O)C(=O)O)CC[C@H]5O)O4)O3)CC[C@H]2O[C@@H]1[C@@H](O)C[C@H](C)[C@H]1O[C@@]2(CCCCO2)CC[C@H]1C [ocadaic acid],IC50,"PP2A phosphatase; PP2A 0.003 units, P1°*-TAMRA peptide 10 nM, 30° C., read-out: IC50 (half-maximal inhibitory concentration, PP2A-dependent dephosphorylation of TAMRA-P1°* peptide)",0.3 nM
H-KFMM[pT]P[pY]VVTR-NH2 [P1*°],Competition with TAMRA-labelled peptide P1*° for binding to the antibody,[2],able to compete effectively
same,IC50,[2]; read-out: IC50 (competition of antibody binding to TAMRA-labelled peptide P1*°),5 nM
"H-Lys-Phe-Met-Met-Thr-Pro-pTyr-Val-Val-Thr-Arg-NH2 (chain 1 H-KFMMTP; chain 2 [pY]VVTR-NH2; not fully specified (C-terminus); also: chains 1 and 2 are one peptide continuing through pTyr) [P1°, monophosphorylated control peptide]",Competition with TAMRA-labelled peptide P1*° for binding to the antibody,[2],did note compete effectively
"H-Lys-Phe-Met-Met-pThr-Pro-Tyr-Val-Val-Thr-Arg-NH2 (chain 1 H-KFMM; chain 2 [pT]PYVVTR-NH2; not fully specified (C-terminus); also: chains 1 and 2 are one peptide continuing through pThr) [P1*, monophosphorylated control peptide]",Competition with TAMRA-labelled peptide P1*° for binding to the antibody,[2],did note compete effectively
TAMRA-A-R-K-p(S10)-T-T-G-K-A [peptide #13],Binding of the ac(K9)-p(S10)-specific antibody to the peptide,[3],only low binding
TAMRA-A-R-K-p(S10)-T-T-G-ac(K14)-A-P [peptide #11],Binding of the ac(K9)-p(S10)-specific antibody to the peptide,[3],only low binding
same,Binding of the p(S10)-ac(K14)-specific antibody to the peptide,[4],binding
TAMRA-A-R-ac(K9)-S-T-T-G-K-A [peptide #12],Binding of the ac(K9)-p(S10)-specific antibody to the peptide,[3],only low binding
TAMRA-A-R-ac(K9)-p(S10)-T-T-G-K-A-P [peptide #10],Binding of the ac(K9)-p(S10)-specific antibody to the peptide,[3],binding
same,Binding of the p(S10)-ac(K14)-specific antibody to the peptide,[4],only low binding
